In the supplement of paper PMC10290057:
Structures can show the parent of a compound that is named as a salt.

test system: HCT116; experiment: efficacy (fitted maximal change in viability relative to DMSO control); higher = less cytotoxic (negative = loss of viability); conditions: 48 h
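Note: Luminescence-based viability readout, five doses per compound, normalized against on-plate DMSO and empty-well controls, followed by dose-response curve fitting for every drug.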

Structure (SMILES) | efficacy
O=[S+]([O-])(c1cccc2c(I)cccc12)N1CCCNCC1 [ML-7] | -56.9%
CCCNCC(O)COc1ccccc1C(=O)CCc1ccccc1 (stereo not given) [Propafenone hydrochloride] | -43.8%
CC[C@H](C)C(=O)O[C@H]1C[C@@H](C)\C=C2\C=C/[C@H](C)[C@H](CC[C@@H]3C[C@@H](O)CC(=O)O3)[C@@H]12 [Lovastatin] | -14.4%
O=C1NC(=O)/C(=C/c2ccc3nccnc3c2)S1 | -27.3%
CC(=O)OCCN1C(=O)c2c(C)nc3ccc([S+](=O)([O-])N4CCOCC4)cc3c2C1=O [Ivachtin] | -16.7%
NC(=O)[C@@H](CCC(F)(F)F)N(Cc1ccc(-c2ncon2)cc1F)[S+](=O)([O-])c1ccc(Cl)cc1 [Avagacestat] | -65.8%
CCOC(=O)C(C#N)C\1C2=CC(=CC=C2O\C(=C1C(=O)OCC)N)Br (stereo not given) [HA-14-1] | -8.15%
N#CC(O[C@@H]1O[C@H](CO[C@@H]2O[C@H](CO)[C@@H](O)[C@H](O)[C@H]2O)[C@@H](O)[C@H](O)[C@H]1O)c1ccccc1 (stereo not given in full) [Amygdalin] | 29%
CC(C)[C@H](C(=O)Nc1ccc(C(=O)NO)cc1)c1ccccc1 [AR-42] | -43.8%
N/C1=N/C(=O)C/2=C(NC[C@@H](CNC3=CC=C(C=C3)C(=O)N[C@@H](CCC([O-])=O)C([O-])=O)N2C=O)\N1 [Calcium folinate] | -9.49%
N\C1=N\C2=C(N=C[N]2COC(CO)CO)C(=O)N1 [Ganciclovir] | -18.1%
COc1ccc2cc(OCC3(C(=O)O)CN(C(=O)c4ccc(F)cc4)C3)ccc2c1 | -11.6%
CC(=O)[C@H]1CC[C@H]2[C@@H]3C/C=C4/C[C@@H](O)CC[C@]4(C)[C@H]3CC[C@]12C [Pregnenolone] | -6.65%
Cc1cnc(NC(=O)c2cc(Oc3cnc(C(=O)N(C)C)nc3)c3cc(C)oc3c2)cn1 | -6.07%
CCc1c(C(=O)NNC(=O)[C@@H](O)c2cc(F)cc(F)c2)ccc(O)c1C | -5.46%
COc1cc(OC)c(C(=O)CCCN2CCCC2)c(OC)c1 [Buflomedil hydrochloride] | -7.04%
CCN([C@H]1CC[C@@H](CC1)N(C)CCOC)C2=C(C)C(=CC(=C2)C#CCN3CCOCC3)C(=O)NC\C4=C(C)\C=C(\C)NC4=O | -10.4%
C/C=C(/C)C(=O)O[C@H]1C(C)=CC23C(=O)C(C=C(CO)[C@@H](O)[C@]12O)[C@H]1[C@@H](C[C@H]3C)C1(C)C (stereo not given in full) [Ingenol mebutate] | -63.6%
CC1(N)CCN(c2cnc(-c3cccc(Cl)c3Cl)c(N)n2)CC1 [SHP-099] | -5.94%
CCN1\C=C(C(O)=O)/C(=O)C2=C1C(=C(N3CCNC(C)C3)C(=C2)F)F (stereo not given) [Lomefloxacin hydrochloride] | -18.8%
Cc1cc2c(cc1C1(c3ccc(C(=O)O)cn3)CC1)C(C)(C)CCC2(C)C | -25.8%
OCCN(CCO)c1nc(N2CCCCC2)c2nc(N(CCO)CCO)nc(N3CCCCC3)c2n1 [Dipyridamole] | -30.3%
CCC(=O)O[C@@]1([C@H](C)C[C@H]2[C@@H]3C[C@H](F)\C4=C\C(=O)\C=C/[C@]4(C)[C@@]3(F)[C@@H](O)C[C@]12C)C(=O)SCF [Fluticasone propionate] | -11.6%
O=C(O)[C@@H](c1ccc(OCc2ccc3ccccc3n2)cc1)C1CCCC1 [Veliflapon] | -10.1%
O=[S+]([O-])(CC1CS1)c1ccc(Oc2ccccc2)cc1 (stereo not given) [SB-3CT] | -55.8%

Structure (SMILES) | efficacy
CC(C)(C(=O)NCC(F)(F)C(F)(F)F)C(=O)N[C@@H]1C(=O)Nc2ccccc2-c2ccccc21 | -10.6%
COc1ccc(-c2ccc3cc(C(=O)O)ccc3c2)cc1C12CC3CC(CC(C3)C1)C2 [Adapalene] | 9.71%
C[C@]12CCC\3=C\4CCC(=O)\C=C4CC[C@H]3[C@@H]1CC[C@@]2(O)CC#N [Dienogest] | -15.9%
C[C@@H]\1/N=C(/N)NC(=N1)\N(C)C [Imeglimin] | -5.96%
CNc1nc(Nc2ccc(C(=O)N3CCOCC3)cc2OC)ncc1Cl [Hg-10-102-01] | -12.2%
Cc1nnc(N[S+](=O)([O-])c2ccc(N)cc2)s1 [Sulfamethizole] | -10.7%
O=C1[C@H](CC[C@H](O)c2ccc(F)cc2)[C@@H](c2ccc(O)cc2)N1c1ccc(F)cc1 [Ezetimibe] | -48.2%
Cc1cc(-c2ccc(CC(=O)Nc3ccc(-c4cccnc4)cc3)cc2)ccn1 [Wnt-C59] | -33.8%
Cc1cccc(N(C)C(=S)Oc2ccc3ccccc3c2)c1 [Tolnaftate] | -28.8%
CC/1=C/2C[C@H]3C(=C)CCC[C@]3(C)/C=C2OC1=O [Atractylenolide I] | 6.55%
OC[C@H]1O[C@H]([C@H](O)[C@@H](O)[C@@H]1O)C2=C(O)C=CC3=C2O/C=C(C3=O)/C4=CC=C(O)C=C4 [Puerarin] | -15.8%
COc1c(N2C[C@@H]3CCCN[C@@H]3C2)c(F)cc2c(=O)c(C(=O)O)cn(C3CC3)c12.Cl.O [Moxifloxacin hydrochloride] | -9.48%
CC(C)[C@H](CO)Nc1nc(Nc2ccc(C(=O)O)c(Cl)c2)c2ncn(C(C)C)c2n1 [Purvalanol B] | -11.6%
COC1=CC=C(C=C1)C/2=C/OC3=C(C(=CC(=C3)O)O)C2=O [Biochanin A] | -34.7%
CN(C)CCN(C)CCc1ccc(Cl)c(Cl)c1 [BD-1047] | -29.2%
COc1cc2ncnc(Nc3cc(Br)c(O)c(Br)c3)c2cc1OC [WHI-P97] | -37.8%
Cc1nnc(C(C)C)n1C1CC2CCC(C1)N2CCC(NC(=O)C1CCC(F)(F)CC1)c1ccccc1 (stereo not given) [Celsentri (Maraviroc)] | 17%
N#Cc1ccnc(N2C(=O)CC[C@H]2C(=O)N(c2cncc(F)c2)[C@H](C(=O)NC2CC(F)(F)C2)c2ccccc2Cl)c1 [Ivosidenib] | -25.4%
CCN(c1ccccc1)c1cc(NC)[n+](C)c(C)n1 [ICI-D7288] | -13%
CCn1nc(C2CCN(C(=O)CCO)CC2)nc1-c1cnc(N)c(-c2nnc(C(C)(C)C)o2)n1 [AZD-8835] | -18.9%
CC/1=C2/N(C(=O)C(=C1)/NC3=CC(=NC=N3)N)C4(CCCCC4)NC2=O [eFT508] | -7.54%
O=C(O)CSCC(=O)NC1CCSC1=O (stereo not given) [Erdosteine] | 9.04%
O=C(O)CCCCN(CCc1ccccc1OCc1ccc(CCc2ccccc2)cc1)Cc1ccc(C(=O)O)cc1 [Cinaciguat] | -11.7%
NC[C@H](O)c1ccc(O)c(O)c1 [Noradrenaline bitartrate monohydrate] | 10.7%
COc1ccc2[nH]cc(CCNC(C)=O)c2c1 [Melatonin] | -10.4%

Structure (SMILES) | efficacy
Cc1ccccc1C(C(=O)NC1CCCCC1)N(C(=O)CNc1ccc(C#N)cc1)c1cccc(F)c1 (stereo not given) [IDH-C227] | -56.1%
CC1(C)S[C@H]2[C@H](NC(=O)[C@@H](N)c3ccc(O)cc3)C(=O)N2[C@H]1C(=O)O [Amoxicillin sodium] | 6.82%
CN[C@@H]1[C@@H](O)[C@@H](O[C@@H]2[C@@H](O)[C@H](O[C@H]3O[C@H](CN)[C@@H](O)[C@H](O)[C@H]3O)[C@@H](N)C[C@H]2NC(=O)C(O)CN)OC[C@]1(C)O.O=S(=O)(O)O (stereo not given in full) [Isepamicin sulfate] | -15.7%
Cc1cccc(-c2nn3c(c2-c2ccnc4ccc(C(N)=O)cc24)CCC3)n1 [Galunisertib] | 12.5%
Clc1cccc(-c2ccc(-c3nnc(CCCc4ccc5cccnc5n4)o3)cc2)c1 [PRP003-073] | -17.9%
N=C(N)NC(=O)c1nc(Cl)c(N)nc1N [Amiloride hydrochloride] | -10.8%
Cc1ccnc(N[S+](=O)([O-])c2ccc(NC(=O)Nc3ccc([S+](=O)([O-])Nc4nccc(C)n4)cc3)cc2)n1 | -21.3%
COc1nccc(-c2c(-c3ccc(F)cc3)ncn2C2CCC(O)CC2)n1 (stereo not given) | -34.5%
COC(=O)N(C)c1c(N)nc(-c2nn(Cc3ccccc3F)c3ncccc23)nc1N [Riociguat] | -5.69%
Cc1nn(C)c(COc2ccc(N3CCN([S+](=O)([O-])N(C)C)CC3)cc2)c1-c1cccc2c(CCCOc3cccc4ccccc34)c(C(=O)O)n(CCN3CCOCC3)c12 | -17.2%
CNC(=O)CN1CCC(Oc2cc3c(Nc4cccc(Cl)c4F)ncnc3cc2OC)CC1 [Sapitinib] | -49.3%
CCC(=O)O[C@@]1([C@@H](C)C[C@H]2[C@@H]3CCC/4=C/C(=O)/C=C\[C@]4(C)[C@@]3(F)[C@@H](O)C[C@]12C)C(=O)CCl [Clobetasol propionate] | -57.1%
Nc1nccc(-c2ccc3noc(-c4ccc(Cl)cc4)c3c2)n1 [Pim 1 Inhibitor 2] | -55%
c1ccc2c(Cc3c[nH]c4ccccc34)c[nH]c2c1 [Diindolylmethane] | -49.5%
CN(C)C(=O)[C@H](O)[C@H](Cc1ccccc1)NC(=O)c1cc2cc(Cl)ccc2[nH]1 | -14.2%
CCOC(=O)c1c(C)n(C)c2ccc(O)cc12 [Mecarbinate] | -21.6%
O=C1CC(c2c[nH]c3ccc(F)cc23)C(=O)N1 (stereo not given) | -7.69%
Cn1c(=O)c2c(ncn2CC(O)CO)n(C)c1=O (stereo not given) [Dyphylline] | -13%
N#Cc1ccc(N(Cc2ccc(Br)cc2)n2cnnc2)cc1 [YM-511] | -14.3%
O=C1NC(=O)/C(=C\c2ccc(-c3ccc(F)cc3)o2)S1 | -23.2%
CN(C)CC/C=C1/c2ccccc2COc2ccc(CC(=O)O)cc21 [Olopatadine hydrochloride] | 5.52%
CCOC(=O)c1ccnc(CNCC(=O)N(CC)CCN(C)C)c1 [KDM5-C70] | 11.1%
COC1=CC2=C(OC\C(=C2\C3=CC=C(F)C=C3)CN4CCCC4)C=C1 [AX-024] | -55.9%
COc1ccc2c(c[n+](C)c3c4cc5c(cc4ccc23)OCO5)c1OC [Chelerythrine chloride] | -83.2%
CC1=C(CC(=O)O)c2cc(F)ccc2/C1=C\c1ccc([S+](C)[O-])cc1 (stereo not given) [Sulindac] | -20.4%
